Columns and labels:
H1L1.1 cells = assay: Dose response of luciferase induction, 24 h (FIGS. 3-6, Table 3); type: cell-based, mouse; conditions: for Maximal luciferase expression / Relative inducing potency versus TCDD: fused-ring PAHs, FIG. 6; for EC50 / Emax: Mus musculus; for Emax / Induction of luciferase activity: mono-ortho-PCBs, FIG. 4; for Emax: vs 1 nM TCDD, read-out: Luciferase induction as % of that observed with TCDD
Procedure: The graph of FIG. 3 illustrates the dose dependence of luciferase induction in the mouse H1L1.1 cells measured following […] of the cells to increasing concentrations of TCDD or other toxic compounds (which others are discussed in more detail below).
More particularly, the stable cell clones for the mouse H1L1.1 cells (about 90% confluent) were plated into six-well microplates (purchased from Corning) and incubated for 24 hours with the indicated concentration of the particular toxin solubilized in DMSO. Then, the cells were lysed with 100 μl of lysis buffer and luciferase activity was determined as described above. Values represent the mean ± the standard evaluation of at least triplicate determinations.
As set out in Table 3, the responsiveness and sensitivity of the mouse H1L1.1 cells was compared to the responsiveness and sensitivity of certain other published PCDH cell bioassay systems. The other systems were a recombinant HepG2 (101L) cell line that induces firefly luciferase (see, Postlind et al., supra), a recombinant Hepa1 (T13) cell line that induces PAP activity (see El-Fouly et al., supra), and a rat H4IIE cell line that induces EROD activity (see, Kennedy et al., supra). The ED50 values were calculated by probit analysis of the dose-response data.
As set out in the graphs of FIGS. 3-6, since one use of the stably transfected mouse H1L1.1 cell lines is for detection and relative quantitative analysis of TCDD and various dioxin-like compounds (i.e., AhR ligands), the ability of various compounds besides TCDD to induce luciferase activity in the mouse H1L1.1 cells was examined. The experiments performed to determine the dose-response curves for the toxins other than TCDD set out in the graphs of FIGS. 3-6 were performed in essentially the same manner as the experiments described above to determine the dose response curve of TCDD set out in the graph of FIG. 3.
Specifically, with respect to the data illustrated in the graph of FIG. 3, cells were incubated with increasing concentrations of test chemical and luciferase activity determined after 24 hours.
It should be noted that the low numerical values of luciferase activity from induction by various PCBs reported in FIGS. 4 and 5, compared to the values reported in the other figures, are not due to actual low levels of luciferase induction, but to the fact that the detection of luminescence in these experiments was performed using a different instrument from that used in the other experiments.
However, the relative magnitude of luciferase induction by the mono-ortho-PCBs (FIG. 4) and the AROCLORS (FIG. 5) was established by directly comparing the resulting activity to that produced by a maximally inducing dose of TCDD (1 nM solubilized in DMSO) measured in the same instrument.

[1] = tested on: guinea pig G16L1.1c8 cells; assay: Antagonism of TCDD luciferase induction by 2,2',5,5'-TCB (FIG. 7); type: cell-based; conditions: 24 h
Procedure: (§1) The bar graph of FIG. 7 illustrates that 2,2',5,5'-TCB antagonizes induction of luciferase activity by TCDD in a species-specific manner, and thus, 2,2',5,5'-TCB is not a TCDD-like compound as defined herein. In particular, six-well plates containing the indicated cell lines were incubated with DMSO (control), with TCDD (5 nM), with 2,2',5,5'-TCB (25 μM), or with both TCDD (5 nM) and 2,2',5,5'-TCB (25 μM) for 24 hours. Luciferase activity in cell lysates was determined as described above. Values represent the mean ± the standard evaluation of at least triplicate determinations.

human HG2L1.1c3 cells = assay: as above; type: cell-based; conditions: 24 h
Procedure: as §1

rat H4L1.1c4 cells = assay: as above; type: cell-based; conditions: 24 h
Procedure: as §1

mouse H1L1.1 cells = assay: as above; type: cell-based
Procedure: as §1

mouse AhR = assay: Competitive inhibition of TCDD binding to AhR
guinea pig AhR = assay: Competitive inhibition of TCDD binding to AhR
rat AhR = assay: Competitive inhibition of TCDD binding to AhR

Structure (SMILES): Cc1ccc2cc3c(ccc4ccccc43)c3c2c1CC3 [3-MC, 3-methylcholanthrene]
- Maximal luciferase expression (H1L1.1 cells): maximal luciferase expression was not reached
- Relative inducing potency versus TCDD (H1L1.1 cells): substantially less potent than TCDD

Structure (SMILES): O=c1cc(-c2ccccc2)oc2ccc3ccccc3c12 [BNF, β-naphthoflavone]
- Maximal luciferase expression (H1L1.1 cells): maximal luciferase expression was not reached
- Relative inducing potency versus TCDD (H1L1.1 cells): substantially less potent than TCDD

Structure (SMILES): Clc1cc2c(cc1Cl)Oc1c(Cl)c(Cl)cc(Cl)c1O2 [1,2,4,7,8-PCDD, 1,2,4,7,8-pentachlorodibenzo-p-dioxin]
- Luciferase activation (H1L1.1 cells; up to 10 μM, 24 h, FIG. 3): no luciferase activation

Structure (SMILES): c1ccc2cc3c(ccc4ccccc43)cc2c1 [BA, benz[a]anthracene]
- Maximal luciferase expression (H1L1.1 cells): maximal luciferase expression was not reached
- Relative inducing potency versus TCDD (H1L1.1 cells): substantially less potent than TCDD

Structure (SMILES): Clc1cc2oc3c(Cl)c(Cl)c(Cl)cc3c2cc1Cl [2,3,4,7,8-PCDF, 2,3,4,7,8-pentachlorodibenzofuran]
- Level of luciferase induction relative to TCDD (H1L1.1 cells; 24 h, FIG. 3): comparable levels
- EC50 (H1L1.1 cells; 24 h, FIG. 3): ~2 nM

Structure (SMILES): Clc1ccc(-c2cc(Cl)c(Cl)c(Cl)c2Cl)cc1Cl [2,3,3',4,4',5-HCB, 2,3,3',4,4',5-hexachlorobiphenyl]
- Emax (H1L1.1 cells; 24 h): 20 to 30%
- Induction of luciferase activity (H1L1.1 cells; 24 h): 10 fold

Structure (SMILES): Clc1ccc(-c2ccc(Cl)c(Cl)c2)cc1Cl [3,3',4,4'-TCB, 3,3',4,4'-tetrachlorobiphenyl]
- Level of luciferase induction relative to TCDD (H1L1.1 cells; 24 h, FIG. 3): comparable maximal levels
- EC50 (H1L1.1 cells; 24 h, FIG. 3): 100 nM

Structure (SMILES): Clc1cc2oc3cc(Cl)c(Cl)cc3c2cc1Cl [2,3,7,8-TCDF, 2,3,7,8-tetrachlorodibenzofuran]
- Level of luciferase induction relative to TCDD (H1L1.1 cells; 24 h, FIG. 3): comparable levels
- EC50 (H1L1.1 cells; 24 h, FIG. 3): ~0.05 nM

Structure (SMILES): Clc1ccc(-c2cc(Cl)c(Cl)c(Cl)c2)cc1Cl [3,3',4,4',5-PCB, 3,3',4,4',5-pentachlorobiphenyl]
- Level of luciferase induction relative to TCDD (H1L1.1 cells; 24 h, FIG. 3): comparable maximal levels
- EC50 (H1L1.1 cells; 24 h, FIG. 3): 2 nM

Structure (SMILES): Clc1ccc(-c2cc(Cl)c(Cl)c(Cl)c2Cl)cc1 [2,3,4,4',5-PCB, 2,3,4,4',5-pentachlorobiphenyl]
- Emax (H1L1.1 cells; 24 h): 20 to 30%
- Induction of luciferase activity (H1L1.1 cells; 24 h): 10 fold

Structure (SMILES): Clc1ccc(Cl)c(-c2cc(Cl)ccc2Cl)c1 [2,2',5,5'-TCB, 2,2',5,5'-tetrachlorobiphenyl]
- Effect of 2,2',5,5'-TCB alone on luciferase activity ([1]; 25 μM): no significant effect
- Effect of 2,2',5,5'-TCB on TCDD luciferase induction ([1]; TCB 25 μM + TCDD 5 nM): not affected
- Effect of 2,2',5,5'-TCB alone on luciferase activity (human HG2L1.1c3 cells; 25 μM): no significant effect
- Effect of 2,2',5,5'-TCB on TCDD luciferase induction (human HG2L1.1c3 cells; TCB 25 μM + TCDD 5 nM): not affected
- Effect of 2,2',5,5'-TCB alone on luciferase activity (rat H4L1.1c4 cells; 25 μM): no significant effect
- Reduction of TCDD luciferase induction (rat H4L1.1c4 cells; TCB 25 μM + TCDD 5 nM): 47%
- Effect of 2,2',5,5'-TCB alone on luciferase activity (mouse H1L1.1 cells; 25 μM, 24 h): no significant effect
- Luminescence response of H1L1.1 cells (mouse H1L1.1 cells; 2,2',5,5'-TCB alone, in words): will not cause the novel mouse H1L1.1 cell line to respond with luminescence
- Reduction of TCDD luciferase induction (mouse H1L1.1 cells; TCB 25 μM + TCDD 5 nM, 24 h): 86%
- Antagonism when added with TCDD (mouse H1L1.1 cells; in words): acts as an antagonist
- Competitive inhibition of TCDD binding (mouse AhR): competitively to inhibit TCDD binding
- Competitive inhibition of TCDD binding (guinea pig AhR): but not to the guinea pig and human AhRs
- Competitive inhibition of TCDD binding (rat AhR): competitively to inhibit TCDD binding

Source: patent US5854010A, “Bioassay for detecting 2,3,7,8-tetrachlorodibenzo-para-dioxin and TCDD-like compounds and novel recombinant cell line useful therefor” (priority 1997, dated 1998)
